In patent US5618836A, “[4-(1,2-epoxycyclohexanyl)but-3-en-1-ynyl]aromatic and heteroaromatic acids and derivatives having retinoid-like biological activity” (Allergan, priority 1995, dated 1997):

Assays:
[1] = system: ornithine decarboxylase (ODC); experiment: Inhibition of TPA induction of ornithine decarboxylase (ODC) activity; assay type: in vivo; conditions: inhibition of TPA-induced ODC; assay essentially per Cancer Res: 1662-1670, 1975
Source text: The retinoid-like activity of these compounds is confirmed through the classic measure of retinoic acid activity involving the effects of retinoic acid on ornithine decarboxylase. The original work on the correlation between retinoic acid and decrease in cell proliferation was done by Verma & Boutwell, Cancer Research, 1977, 37,2196-2201. That reference discloses that ornithine decarboxylase (ODC) activity increased precedent to polyamine biosynthesis. It has been established elsewhere that increases in polyamine synthesis can be correlated or associated with cellular proliferation. Thus, if ODC activity could be inhibited, cell hyperproliferation could be modulated. Although all causes for ODC activity increases are unknown, it is known that 12-O-tetradecanoylphorbol-13-acetate (TPA) induces ODC activity.

[2] = system: ornithine decarboxylase (ODC); conditions: in words; background statement; cited from earlier work

Compound | IC80 [1] | inhibition of induction of ODC activity by TPA [2]
CCOC(=O)c1ccc(C#C/C=C/C23OC2(C)CCCC3(C)C)nc1 (racemic) [Compound 5, Ethyl (±)-6-[(3E)-4-(1,2-Epoxy-2,6,6-trimethylcyclohexanyl)but-3-en-1-ynyl)nicotinate] | 1.07 nM | 
CC1=C(/C=C/C(C)=C/C=C/C(C)=C/C(=O)O)C(C)(C)CCC1 [Retinoic acid] |  | inhibits this induction of ODC activity by TPA
CC1(C)CCCC2(C)OC12/C=C/C#Cc1ccc(C(=O)O)cc1 (racemic) [Compound 1, (±)-4-[(3E)-4-(1,2-Epoxy-2,6,6-trimethylcyclohexan-yl)but-3-en-1-ynyl)]benzoic acid] | 4.8 nM | 
CC1(C)CCCC2(C)OC12/C=C/C#Cc1ccc(C(=O)O)s1 (racemic) [Compound 3, (±)-5-[(3E)-4-(1,2-Epoxy-2,6,6-trimethylcyclohexan-yl)but-3-en-1-ynyl)]-2-thiophenecarboxylic acid] | 22.3 nM | 
CCOC(=O)c1ccc(C#C/C=C/C23OC2(C)CCCC3(C)C)s1 (racemic) [Compound 6, Ethyl(±)-5-[(3E)-4-(1,2-Epoxy-2,6,6-trimethylcyclohexanyl)but-3-en-1-ynyl)]-2thiophenecarboxylate] | 16 nM | 
CC1(C)CCCC2(C)OC12/C=C/C#Cc1ccc(C(=O)O)cn1 (racemic) [Compound 4, (±)-6-[(3E)-4-(1,2-Epoxy-2,6,6-trimethylcyclohexan-yl)but-3-en-1-ynyl)]nicotinic acid] | 21 nM | 
